The record followed here is patent US20120101164A1, “ABSCISSION AND CROP STORAGE UNIT” (TAMINCO, NAAMLOZE VENNOOTSCHAP, priority 2009, published 2012).

Where two headings read alike, the source gives them in different places.

Common to all, as to format: in vivo
In test [1] the test system is PAPAVER Nudicaule (Iceland Poppy). Kind of test: Petal abscission delay, auxins/precursors with or without AC. The conditions noted are these: for change in vivo at 10000 µM: Papaver nudicaule; for Total Duration of Flowering (to petal fall): auxin/precursor 10^-2 Molar solution, AC 3 g per hectare equivalent. On the procedure:
(§1) Cultural Details: plants were sown in a commercial seed compost and then “pricked out” into a professional grade all-purpose compost in 9 cm pots set out in a randomized block design. Normal daylight plus supplementary lighting to provide a minimum of 10 hours per day. Heating was given to a minimum of 60 degrees Fahrenheit during the day and 40 degrees at night.
Sowing Date: 18 Nov. […] Application Date: 5 Jan.
Measurement Date: 12 Jan.
A number of auxins or auxin precursors were applied, each at 10^−2 Molar solutions. Addition of acetaminophen (AC) was at 3 g per hectare equivalent in each test. Measurement: Delay of first petal fall for each treatment (in days).

Test [2] relates to RADISH—cv F1 Apache. The test is described as follows: Post-harvest shelf-life, auxins/precursors with or without AC. The conditions noted are these: for change in vivo at 10000 µM: Raphanus sativus; for Shelf-Life Duration (days after harvest): ambient temperature, auxin/precursor 10^-2 Molar, AC 3 g per hectare equivalent, two applications. On the procedure: as §1
Sowing Date: 3 Nov. […] Application Dates: 28 Dec. […] Harvest Date: 11 Jan. […] Measurement: Shelf-Life (days after harvest) at ambient temperature.
A number of auxins or auxin precursors were compared, each at 10^−2 Molar solutions. Addition of acetaminophen (AC) was at 3 g per hectare equivalent in each test.

For test [3], the system named is PAPAVER Nudicaule (Iceland Poppy). The test is described as follows: Petal abscission delay, AN or AN + AC with additives. The conditions noted are these: for Total Duration of Flowering (to petal fall): AN 1 g per hectare, AC 3 g per hectare, additive rate per ha as in label. As for the experimental part: (§2) To each were added certain agrochemically acceptable additives, as examples.
as §1
Sowing Date: 19 Dec. 2009, in plugs. Application Date: 7 Feb. 2010.
Measurement Date: 12 Feb. 2010, at daily intervals.
Measurement: Delay of first petal-fall for each treatment (in days).

Test [4] concerns RADISH—cv F1 Apache. Kind of test: Post-harvest shelf-life, AN or AN + AC with additives. The conditions noted are these: for Shelf-Life Duration (days after harvest): AN 1 g per hectare, AC 3 g per hectare, additive rate per ha as in label. On the procedure: as §2, §1
Sowing Date: 28 Jan. 2010, in plugs. Application Date: 5 Mar. 2010.
Measurement Date: 13 Mar. 2010. • Measurement: Shelf-life duration (days).

The mark [5] stands for this setting: duration of flowering, read-out: % Improvement over control.
Setting [6] is: shelf-life, read-out: % Improvement over control.
Setting [7] is: read-out: % Improvement over control, duration of flowering.
Setting [8] is: read-out: % Improvement over control, shelf-life.
The mark [9] stands for this setting: read-out: % Improvement over control.

Regarding `CC(N)=O` [Acetamide], the change in vivo at 10000 µM was 19.4% in test [1] (setting [5]) and 38.1% in test [2] (setting [6]). Also, the “Total Duration of Flowering (to petal fall)” value (shortened to “Total Duration of Flowering”) in test [1] amounted to 11.7 days. Further, in test [2], the “Shelf-Life Duration (days after harvest)” value turned out to be 8.7 days.
On to `COC(=O)c1ccccc1N` [Anthranilic acid methyl ester], for which the change in vivo at 10000 µM amounted to 23.5% in test [1] (setting [7]) and 38.1% in test [2] (setting [8]). In addition, in test [1], the “Total Duration of Flowering” value amounted to 12.1 days. Moreover, the “Shelf-Life Duration (days after harvest)” value in test [2] came out at 8.7 days.
For the compound `Nc1ccccc1C(=O)[O-].[Na+]` [Anthranilic Acid monosodium salt], the change in vivo at 10000 µM in test [1] (setting [7]) amounted to 19.4%; in test [2] (setting [8]), 22.2%. For the same compound, the “Total Duration of Flowering” value in test [1] is recorded as 11.7 days. Also, the “Shelf-Life Duration (days after harvest)” value in test [2] stood at 7.7 days.
Regarding `Nc1c(O)cccc1C(=O)O` [3-Hydroxyanthranilic acid], the results for the change in vivo at 10000 µM in test [1] (setting [5]) and in test [2] (setting [6]) were 18.4% and 15.9%, respectively. The “Total Duration of Flowering” value in test [1] is recorded as 11.6 days. Besides, in test [2], the “Shelf-Life Duration (days after harvest)” value was found to be 7.3 days.
Regarding `NCCc1c[nH]c2ccccc12` [Tryptamine], the change in vivo at 10000 µM came out at 19.4% in test [1] (setting [7]) and 11.1% in test [2] (setting [8]). In addition, the “Total Duration of Flowering” value in test [1] amounted to 11.7 days. Also, the “Shelf-Life Duration (days after harvest)” value in test [2] is 7.0 days.
With `NC(=O)Cc1c[nH]c2ccccc12` [Indole-3-acetamide], the change in vivo at 10000 µM in test [1] (setting [5]) amounted to 21.4%; in test [2] (setting [6]) it was 3.2%. Moreover, in test [1], the “Total Duration of Flowering” value is 11.9 days. Also, the “Shelf-Life Duration (days after harvest)” value in test [2] was 6.5 days.
Turning to `CC(=O)Nc1ccc(O)cc1` [AC, N-(4-hydroxypheyl)acetamide, reference compound], the change in vivo at 10000 µM in test [1] (setting [5]) and in test [2] (setting [6]) was 0% in each case. Moreover, the “Total Duration of Flowering” value in test [1] is 9.9 days; in test [3] it was 8.8 days. For the same compound, the “Shelf-Life Duration (days after harvest)” value in test [2] is on record as 6.2 days; in test [4] it was 5.8 days.
For `Nc1ccccc1C(=O)O` [Anthranilic acid, anthranilic acid], the “Total Duration of Flowering” value in test [1] came to 12.2 days; in test [3], 10.9 days. The results for the “% Improvement over control” value in test [1] (duration of flowering) and in test [2] (shelf-life) were “+24.5%” and “+36.5%”, respectively. The “% Improvement over appropriate control (ie AN or AN + AC)” value in test [3] (duration of flowering) is listed as “+0.0%”. Also, the results for the “% Improvement over untreated” value in test [3] (duration of flowering) and in test [4] (shelf-life) were “+23.9%” and “+44.1%”, respectively. For the same compound, the “Shelf-Life Duration (days after harvest)” value in test [2] was determined as 8.6 days; in test [4] it was 8.5 days.
With `N[C@@H](Cc1c[nH]c2ccccc12)C(=O)O` [L-Tryptophan], the change in vivo at 10000 µM in test [1] (setting [9]) came to 10.2%; in test [2] (setting [9]), 3.2%. Besides, the “Total Duration of Flowering” value in test [1] is listed as 10.8 days. The “Shelf-Life Duration (days after harvest)” value in test [2] amounted to 6.5 days.
